In paper PMC9814205, “Targeting undruggable carbohydrate recognition sites through focused fragment library design” (Communications Chemistry, 2022):
“Also recorded” adds a separate entry of the source.

Key:
Assay type in all cases: binding
LecA [1] = biological target: T1, LecA (Pseudomonas aeruginosa, UniProt Q05097); experiment: Competitive fluorescence polarization (FP) assay; conditions: for Inhibition in FP: compared to MeGal at 10 mM (16 h); for inhibition at 10000 µM: read-out: Inhibition in FP, compared to MeGal at 10 mM (16 h)
T1 construct: made in house
T1 sequence (Q05097 whole entry): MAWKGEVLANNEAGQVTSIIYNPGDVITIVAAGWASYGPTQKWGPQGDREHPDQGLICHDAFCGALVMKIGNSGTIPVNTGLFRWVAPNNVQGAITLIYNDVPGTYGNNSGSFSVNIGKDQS
Description: The FP assay was performed in a black 384-well plate (Greiner Bio-One, Germany, 781900) with the final volume of 20 µL as described previously. Briefly, 10 µL of a sample solution series (10–0.078 mM) in TBS buffer containing 10 mM Ca^2+ (TBS/Ca^2+-buffer) and 20% DMSO were added in technical triplicates to 10 µL LecA (40 µM) preincubated with a galactose-based Cy5 conjugate[68] (20 nM) in TBS/Ca^2+-buffer. […] The plate was sealed (EASYseal, Greiner Bio-One, 676,001), centrifuged (1 min, 1500 rpm, 25 °C) and incubated in a humidity chamber for 16 h. The fluorescence was measured with an excitation 590 nm and emission 675 nm filter[68] on a PheraStar FS plate reader (BMG Labtech GmbH, Germany). The blank signal of TBS/Ca^2+-buffer containing 10% DMSO was subtracted and the compounds were analyzed with the MARS Data Analysis Software (BMG Labtech GmbH Germany) using the four-parameter variable slope model. The top and bottom plateaus were defined according to the positive controls. The graphs were visualized using Graphpad Prism 5. The percentage (%) of inhibition was calculated at the highest concentration compared with 10 mM MeGal set to 100%.

5FW LecA (PA-IL) = biological target: T2, 5FW LecA (PA-IL) (Pseudomonas aeruginosa, UniProt Q05097); experiment: PrOF NMR with 5-fluorotryptophan-labeled LecA
T2 construct: made in house
T2 sequence (Q05097 2-122): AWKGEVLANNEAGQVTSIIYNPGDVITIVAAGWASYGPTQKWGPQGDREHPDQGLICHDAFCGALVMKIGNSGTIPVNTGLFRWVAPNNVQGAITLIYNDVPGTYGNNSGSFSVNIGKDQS
Description: PrOF NMR was performed as reported previously. Briefly, 150 µM 5FW LecA was recorded alone and in the presence of DMSO or 2–4 mM compounds in TBS/Ca^2+ buffer. The difference in chemical shift perturbations of W42 in 5FW LecA free vs bound forms was followed to determine Kd values of compounds. The Kd values were calculated according to the one-site-binding model in Origin(Pro) 2020b (OriginLab Corp., USA) from two or three independent titrations. Ligand efficiency values were calculated according to Eq. (1) for a temperature of 310 K.

15N LecA = biological target: T3, 15N LecA (Pseudomonas aeruginosa, UniProt Q05097); experiment: 1H-15N TROSY NMR with 15N LecA; conditions: 4 mM analogs of 1, 1 mM marketed hydroxamates
T3 construct: made in house
T3 sequence (Q05097 whole entry): as the sequence (Q05097 whole entry) above
Description: (§1) The ^1H-^15N TROSY pulse sequence trosyf3gpphsi19 with 128 increments and 32 scans per increment was applied for 0.15 mM ^15N LecA and 0.07 mM LecB in HBS/Ca^2+ buffer (20 mM HEPES pH 7.4, 150 mM NaCl, 10 mM CaCl2, 10% D2O and 100 µM sodium trimethylsilylpropanesulfonate (DSS) as internal reference) at 310 K. The ^1H-^15N HSQC pulse sequence hsqcf3gpph19 with 128 increments and 8 scans per increment was applied for 0.1 mM ^15N DC-SIGN and Langerin CRD in HBS/Ca^2+ buffer at 298 K. For screening of 650 non-fluorinated fragments of the general library against ^15N LecA, a mix of 10 compounds at 1 mM each was combined with 0.15 mM ^15N LecA in HBS/Ca^2+ buffer (20 mM HEPES pH 7.4, 150 mM NaCl, 10 mM CaCl2, 10% D2O and 100 µM sodium trimethylsilylpropanesulfonate (DSS) as internal reference, whereas the fragments with the MBP scaffolds were validated separately at 1 mM. Similarly, 9 nonfluorinated fragments from the MBP library were screened against ^15N-labeled DC-SIGN, LecA and LecB. To validate the fragment binding to proteins, we recorded ^1H-^15N HSQC and TROSY NMR of proteins in the presence of DMSO as negative control and 2 mM fragments in HBS/Ca^2+ buffer. Natural ligands were used as positive controls at 1 mM MeGal, MeFuc and 30 mM D-mannose to LecA/LecB and DC-SIGN CRD/Langerin CRD, respectively. Titration experiments with ^15N-labeled DC-SIGN CRD or LecB were recorded in HBS/Ca^2+ buffer with 30 mM CaCl2 and 0.25 to 4–8 mM malonic acid derivatives. The Kd values were calculated according to the one-site-binding model in Origin(Pro) 2020b (OriginLab Corp., USA). Ligand efficiency calculations were done according to Eq. (1) for a temperature of 298 K and 310 K for DC-SIGN CRD and LecB, respectively.1 LE=RTlnKd/HA, with the temperature T [K], the gas constant R [kcal mol^−1 K^−1], and the number of non-hydrogen atoms HA[56].
(§2) All data were processed with NMRpipe[65] and analyzed with CcpNmr analysis. For data analysis, the protein fingerprint of ^15N DC-SIGN (Table S7) or Langerin CRD was assigned as reported previously. The ^1H-^15N TROSY resonances of ^15N LecA and ^15N LecB were indexed with IDs due to a lack of protein backbone resonance assignment (Tables S8-S9). Next, resonance IDs from protein spectra were transferred to the spectra obtained in the presence of compounds in order to compare the changes in chemical shift perturbations for the fast exchange peaks. The changes in chemical shift perturbations (CSPs) were calculated according to Eq. (2):2 △δ=1/2△δH2+α△δN^2 in which δ is the difference in chemical shift (in ppm) and α is an empirical weighting factor of 0.14 for all amino acid backbone resonances. The threshold value was set based on three independent measurements of reference spectra to 0.01 ppm for LecA, LecB, DC-SIGN CRD and Langerin CRD.

LecA [2] = biological target: T1, LecA; experiment: Competitive 19F T2-filtered NMR with reporter 5; conditions: 0.1 mM 5, 10 mM CaCl2, 3 mM competitor
Description: The analogs of 1 (5) and 58 (61) were used as fluorinated spy molecules in ^19F T2-filtered NMR experiments. Two samples containing 0.1 mM 5 or 61 alone or a 10 µM protein in TBS/EDTA buffer followed by addition of 10 mM CaCl2 and the carbohydrates: 1 mM MeGal (LecA), 1 mM MeFuc (LecB/BambL) and 30 mM D-mannose (DC-SIGN/Langerin). Similarly, 0.1 mM 5 was used to prioritize hydroxamate derivatives, where 3 mM analogs of 1 were added to the samples instead of the carbohydrates. The ^19F and ^19F T2-filtered spectra were recorded with 64 scans, a spectral width of 5 ppm, a transmitter offset at −155.5 ppm (5) and −155.5 ppm (61), the acquisition time of 0.8 s, 2 s relaxation time applying a T2-filter of 384 ms. All spectra were analyzed as described above.

LecA [3] = biological target: T1, LecA; experiment: SPR with immobilized LecA; conditions: compounds at 0.2 and 1 mM
Description: All experiments were performed on a BIACORE X100 instrument (GE Healthcare) at 25 °C in phosphate-buffered saline (10 mM phosphate buffer pH 7.4, 2.7 mM KCl, 137 mM NaCl, 0.05% Tween-20, 100 µM CaCl2, 5% DMSO). LecA was immobilized onto a CM7 chip (BIACORE) following standard amine coupling procedures. The CM7 chip was activated by three injections of a NHS/EDC mixture with a contact time of 540 s at a flow rate of 10 µL min^−1 until the response exceeded 800 RU, followed by multiple injections of LecA dissolved in 10 mM sodium acetate pH 4.5 (100 µg/mL) onto channel 2 (contact time of 540 s at a flow rate of 10 µL min^−1). A minimum of 10,000 RU of LecA was captured onto the chip. Initial binding screens were performed with the injections of 0.2 and 1 mM of each hydroxamate (association 30 s, dissociation 60 s, 30 µL min^−1 flow rate), to identify the initial binders eliciting dose-response behaviors. Injection of the positive control (0.1 mM 4-Nitrophenyl-β-D-galactoside) was included after every forth injection cycle to monitor the activity of immobilized LecA throughout the binding screen experiments. All data evaluation was performed using BIACORE X100 evaluation software (v.2.0).

DC-SIGN CRD (CD209) = biological target: T4, DC-SIGN CRD (CD209) (Homo sapiens, UniProt Q9NNX6); experiment: 1H-15N HSQC NMR with 15N DC-SIGN CRD
T4 construct: the carbohydrate recognition domain (CRD) of DC-SIGN in ^1H-^15N HSQC/TROSY NMR experiments; made in house
T4 sequence (Q9NNX6 263-378 limits assumed): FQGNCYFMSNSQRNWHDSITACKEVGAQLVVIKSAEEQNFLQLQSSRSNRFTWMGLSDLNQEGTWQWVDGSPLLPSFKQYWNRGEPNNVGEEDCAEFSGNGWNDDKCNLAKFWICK
Description: as §1, §2

SMILES	Inhibition in FP (LecA [1]) [%]	inhibition at 10000 µM (LecA [1]) [%]	binding to 15N LecA in TROSY NMR (15N LecA)	further results
Cc1ccc(CCCC(=O)NO)cc1 [compound 36]	35 ± 3	27 to 39	slightly improved binding	Kd (5FW LecA (PA-IL)): 3600 ± 2200 µM; LE (5FW LecA (PA-IL); ligand efficiency calculated from Kd for LecA, 310 K): 0.25 kcal mol^−1 HA^−1
O=C(CCCc1cccs1)NO [compound 37]	–	25 ± 3	–	–
O=C(CCCc1ccc(Br)cc1)NO [compound 38]	–	25 ± 1	–	–
O=C(CCCc1ccc([N+](=O)[O-])cc1)NO [compound 39]	4 ± 2	–	–	–
COc1ccc(CCCC(=O)NO)cc1 [compound 40]	27 ± 1	27 to 39	–	–
O=C(CCCc1ccc(O)cc1)NO [compound 41]	39 ± 1	27 to 39	–	–
O=C(CC=Cc1ccccc1)NO [compound 42]	–	13 ± 3	not tolerated	–
O=C(COCCc1ccccc1)NO [compound 43]	–	8 ± 3	not tolerated	–
O=C(COCCCc1ccccc1)NO [compound 44]	–	17 ± 2	–	–
O=C(CCCCCCC(=O)Nc1ccccc1)NO [compound 47, reference compound]	–	–	not tolerated; also recorded: none of the marketed metalloproteinase inhibitors (47, 49, 50) bound; also recorded: no binding	competition of reporter 5 from LecA (recovery of 19F peak) (LecA [2]): did not displace; Efficiency in SPR (normalized binding response) (LecA [3]): 3.8%
O=C(O)C(F)(CC1CCC1)C(=O)O [compound 61]	–	–	–	Kd (DC-SIGN CRD (CD209); 15N DC-SIGN CRD, titration, one-site binding model, 30 mM CaCl2): 1900 µM; LE (DC-SIGN CRD (CD209); ligand efficiency calculated from Kd for DC-SIGN CRD, 298 K): 0.28 kcal mol^−1 HA^−1; binding to 5FW LecA (perturbation of W42) in PrOF NMR (5FW LecA (PA-IL); 2 mM compound): perturbed W42; also recorded: strongest perturbation of W42; W42 [ppm] (5FW LecA (PA-IL); 19F resonance of 0.15 mM 5FW LecA with 2 mM compound, DMSO 120.50): 120.32 ppm; W2 [ppm] (5FW LecA (PA-IL); 19F resonance of 0.15 mM 5FW LecA with 2 mM compound, DMSO 121.43): 121.46 ppm; W33 [ppm] (5FW LecA (PA-IL); 19F resonance of 0.15 mM 5FW LecA with 2 mM compound, DMSO 121.67): 121.73 ppm; W84 [ppm] (5FW LecA (PA-IL); 19F resonance of 0.15 mM 5FW LecA with 2 mM compound, DMSO 123.50): 123.52 ppm
